Data from patent US9789181B2, “PAN-DR binding polypeptides and uses thereof” (Epimmune Inc., priority 2009, dated 2017).
Where no end group is shown, it is not given here.

How the values were obtained:
[1] = target: HLA DRB1 *0401 (Homo sapiens, UniProt P01903+P01911, A100K/A169T/F76Y/I96L/K127E/L162R/M171V/N62H/P40V/Q125Y/R42H/S133A/S149N/S66Y/V115G/V209L/W38E); assay: IC50nM to purified HLA | DRB1 *0401
Method: (§1) Table printed on a drawing sheet, FIG. 1 (contd.)
Head of the field: IC50nM to purified HLA | DRB1 *0401
(§2) First copying reader's note: Continued from the preceding sheet of FIG. 1; decimal commas are used, the analog names give the substituted residues and positions in PADRE, and some values are printed in italics or bold and some SEQ ID NOs bold and underlined without a legend on this sheet.
Where the first naming reader finds the target: head: IC50nM to purified HLA | DRB1 *0401

[2] = target: HLA DRB1 *0404 (Homo sapiens, UniProt P01903+P01911, A100R/A169T/F76Y/I96L/K127E/L162R/M171V/N62H/P40V/Q125Y/R42H/S133A/S149N/S66Y/V209L/W38E); assay: IC50nM to purified HLA | DRB1 *0404
Method: as §1
Head of the field: IC50nM to purified HLA | DRB1 *0404
as §2
Where the first naming reader finds the target: head: IC50nM to purified HLA | DRB1 *0404

[3] = target: HLA DRB1 *0802 (Homo sapiens, UniProt P01903+P01911, A100R/A103L/A169T/F76Y/H45Y/I96F/K41T/L162R/M171V/P40S/Q125H/Q178H/Q39Y/Q99D/R218S/R42G/S66Y/V115G/W38E); assay: IC50nM to purified HLA | DRB1 *0802
Method: as §1
(§3) Head of the field: IC50nM to purified HLA | DRB1 *0802
as §2
(§4) Where the first naming reader finds the target: head: IC50nM to purified HLA | DRB1 *0802

[4] = target: HLA DRB1 *0901 (Homo sapiens, UniProt P01903+P01911, A100R/A103E/D57H/D86V/F55Y/F60I/F76Y/I96F/K127E/L162R/M171V/P40D/Q125H/Q99R/R33Q/R42F/S133A/S66N/T210M/V115G/W38K/Y107V/Y59G/Y89S); assay: IC50nM to purified HLA | DRB1 *0901
Method: as §1
Head of the field: IC50nM to purified HLA | DRB1 *0901
as §2
Where the first naming reader finds the target: head: IC50nM to purified HLA | DRB1 *0901

[5] = target: HLA DRB1 *1101 (Homo sapiens, UniProt P01903+P01911, A100R/A169T/A87E/I96F/K41T/L162R/M171V/P40S/Q125H/Q178H/Q39Y/Q99D/R42S/S66Y/T262R/V115G/W38E); assay: IC50nM to purified HLA | DRB1 *1101
Method: as §1
Head of the field: IC50nM to purified HLA | DRB1 *1101
as §2
Where the first naming reader finds the target: head: IC50nM to purified HLA | DRB1 *1101

[6] = target: HLA DRB1 *1501 (Homo sapiens, UniProt P01903+P01911); assay: IC50nM to purified HLA | DRB1 *1501
Method: as §1
Head of the field: IC50nM to purified HLA | DRB1 *1501
as §2
Where the first naming reader finds the target: head: IC50nM to purified HLA | DRB1 *1501

[7] = target: HLA DRB1 *0405 (Homo sapiens, UniProt P01903+P01911, A100R/A169T/D86S/F76Y/I96L/K127E/L162R/M171V/N62H/P40V/Q125Y/R42H/S133A/S149N/S66Y/V115G/V209L/W38E); assay: IC50nM to purified HLA | DRB1 *0405
Method: as §1
(§5) Head of the field: IC50nM to purified HLA | DRB1 *0405
as §2
(§6) Where the first naming reader finds the target: head: IC50nM to purified HLA | DRB1 *0405

[8] = target: HLA DRB1 *1302 (Homo sapiens, UniProt P01903+P01911, A100E/A169T/K41T/L162R/M171V/P40S/Q125H/Q178H/Q39Y/Q99D/R42S/S66N/T262R/V115G/W38E/Y61H); assay: IC50nM to purified HLA | DRB1 *1302
Method: as §1
Head of the field: IC50nM to purified HLA | DRB1 *1302
as §2
Where the first naming reader finds the target: head: IC50nM to purified HLA | DRB1 *1302

[9] = target: HLA DRB5 *0101 (Homo sapiens, UniProt P01903+Q30154); assay: IC50nM to purified HLA | DRB5 *0101
Method: as §1
Head of the field: IC50nM to purified HLA | DRB5 *0101
as §2
Where the first naming reader finds the target: head: IC50nM to purified HLA | DRB5 *0101

[10] = target: HLA DRB1 *0101 (Homo sapiens, UniProt P01903+P01911, A100R/D57E/F55L/F60I/F76Y/I96L/L162R/M171V/P40L/Q125E/R42F/V115G/Y59C); assay: IC50nM to purified HLA | DRB1 *0101
Method: as §1
(§7) Head of the field: IC50nM to purified HLA | DRB1 *0101
as §2
(§8) Where the first naming reader finds the target: head: IC50nM to purified HLA | DRB1 *0101

[11] = target: HLA DRB4 *0101 (Homo sapiens, UniProt P01903+P13762, G164S); assay: IC50nM to purified HLA | DRB4 *0101
Method: as §1
(§9) Head of the field: IC50nM to purified HLA | DRB4 *0101
as §2
(§10) Where the first naming reader finds the target: head: IC50nM to purified HLA | DRB4 *0101

[12] = target: purified HLA DRB1 *0101 (Homo sapiens, UniProt P01903+P01911, A100R/D57E/F55L/F60I/F76Y/I96L/L162R/M171V/P40L/Q125E/R42F/V115G/Y59C); assay: IC50nM to purified HLA | DRB1 *0101
Method: (§11) Table printed on a drawing sheet, FIG. 1
as §7
(§12) First copying reader's note: The comma is the decimal sign and the point a thousands separator (e.g. 21.831); some values are printed bold or italic and some SEQ ID NOs underlined, with no legend on the sheet.
as §8

[13] = target: purified HLA DRB1 *0301 (Homo sapiens, UniProt P01903+P01911, A100K/A102G/A103R/A169T/F55Y/I96L/K41T/L162R/M171V/P40S/Q125H/Q178H/Q39Y/R42S/S66N/T106N/T262R/W38E/Y61H); assay: IC50nM to purified HLA | DRB1 *0301
Method: as §11
Head of the field: IC50nM to purified HLA | DRB1 *0301
as §12
Where the first naming reader finds the target: head: IC50nM to purified HLA | DRB1 *0301

[14] = target: purified HLA DRB1 *0405 (Homo sapiens, UniProt P01903+P01911, A100R/A169T/D86S/F76Y/I96L/K127E/L162R/M171V/N62H/P40V/Q125Y/R42H/S133A/S149N/S66Y/V115G/V209L/W38E); assay: IC50nM to purified HLA | DRB1 *0405
Method: as §11, §5, §12, §6

[15] = target: purified HLA DRB1 *0701 (Homo sapiens, UniProt P01903+P01911, A100R/A102G/A103Q/D57E/D86V/E43K/F76Y/K127E/L162R/M171V/P40G/Q125H/Q99D/R33Q/R42Y/R54Q/S133A/S66F/T210M/V115G/Y107V/Y59L/Y89S); assay: IC50nM to purified HLA | DRB1 *0701
Method: as §11
Head of the field: IC50nM to purified HLA | DRB1 *0701
as §12
Where the first naming reader finds the target: head: IC50nM to purified HLA | DRB1 *0701

[16] = target: purified HLA DRB1 *0802 (Homo sapiens, UniProt P01903+P01911, A100R/A103L/A169T/F76Y/H45Y/I96F/K41T/L162R/M171V/P40S/Q125H/Q178H/Q39Y/Q99D/R218S/R42G/S66Y/V115G/W38E); assay: IC50nM to purified HLA | DRB1 *0802
Method: as §11, §3, §12, §4

[17] = target: purified HLA DRB4 *0101 (Homo sapiens, UniProt P01903+P13762, G164S); assay: IC50nM to purified HLA | DRB4 *0101
Method: as §11, §9, §12, §10

Chain of HLA DRB1 *1101 (P01903 26-254 limits assumed, other chains not shown): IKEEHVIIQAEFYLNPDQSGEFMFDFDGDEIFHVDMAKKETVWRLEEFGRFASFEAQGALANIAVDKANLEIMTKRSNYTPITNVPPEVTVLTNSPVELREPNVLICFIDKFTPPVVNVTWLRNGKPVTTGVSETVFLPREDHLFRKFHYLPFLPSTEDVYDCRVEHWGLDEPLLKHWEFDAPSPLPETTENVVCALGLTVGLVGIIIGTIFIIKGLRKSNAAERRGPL
Chain of purified HLA DRB1 *0301 (P01903 26-254 limits assumed, other chains not shown): as above
Chain of HLA DRB4 *0101 (P01903 26-254 limits assumed): as the sequence (P01903 26-254 limits assumed, other chains not shown) above
Chain of HLA DRB4 *0101 (P13762 whole entry G164S): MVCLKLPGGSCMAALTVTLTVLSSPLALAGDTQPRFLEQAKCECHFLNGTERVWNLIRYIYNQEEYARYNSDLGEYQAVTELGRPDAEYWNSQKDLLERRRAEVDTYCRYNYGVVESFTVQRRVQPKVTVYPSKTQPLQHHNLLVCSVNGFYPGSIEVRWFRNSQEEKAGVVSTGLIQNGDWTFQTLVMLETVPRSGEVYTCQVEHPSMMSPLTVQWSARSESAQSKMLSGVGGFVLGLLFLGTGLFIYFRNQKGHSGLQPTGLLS
Chain of HLA DRB1 *1302 (P01903 26-254 limits assumed, other chains not shown): as the sequence (P01903 26-254 limits assumed, other chains not shown) above
Chain of purified HLA DRB4 *0101 (P01903 26-254 limits assumed): as the sequence (P01903 26-254 limits assumed, other chains not shown) above
Chain of purified HLA DRB4 *0101 (P13762 whole entry G164S): as the sequence (P13762 whole entry G164S) above

IC50 [1] [nM] | IC50 [2] [nM] | IC50 [3] [nM] | IC50 [4] [nM] | IC50 [5] [nM] | IC50 [6] [nM] | IC50 [7] [nM] | IC50 [8] [nM] | IC50 [9] [nM] | IC50 [10] [nM] | IC50 [11] [nM] | IC50 [12] [nM] | IC50 [13] [nM] | IC50 [14] [nM] | IC50 [15] [nM] | IC50 [16] [nM] | IC50 [17] [nM] | Sequence
6.4 | 8.1 | 19 | 46 | 41 | 31 | 8.1 | 801 | 19 | – | – | – | – | – | – | – | – | AAAHFVAAFTLKAEA [SEQ ID NO: 38]
– | 6.9 | 37 | 87 | 70 | 137 | 44 | – | – | 9 | 878 | – | – | – | – | – | – | AAAEFVAANTLHAAA [SEQ ID NO: 49]
– | – | – | – | – | – | – | – | – | – | – | 3.7 | 119 | 6.9 | 55 | 9.7 | 279 | AAAYFVAAWTLHAAA [SEQ ID NO: 21]
